#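 Cultured in 96-well plates, cells were exposed to test compound for 48 hours across five concentrations. TGI marks complete inhibition of growth.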
# How the values were obtained:
# Assay in all cases: inhibition of tumour cell growth, NCI panel, 48 h
# HCT-15 colon = tested on: HCT-15 colon
# T-47D breast = tested on: T-47D breast
# UO-31 renal = tested on: UO-31 renal
# UACC-62 melanoma = tested on: UACC-62 melanoma
# SN12C renal = tested on: SN12C renal
# A498 renal = tested on: A498 renal
# MALME-3M melanoma = tested on: MALME-3M melanoma
# MOLT-4 leukemia = tested on: MOLT-4 leukemia
# NCI-H23 lung = tested on: NCI-H23 lung
# SK-MEL-28 melanoma = tested on: SK-MEL-28 melanoma
# LOX IMVI melanoma = tested on: LOX IMVI melanoma
# SNB-75 CNS = tested on: SNB-75 CNS
# SK-MEL-5 melanoma = tested on: SK-MEL-5 melanoma
# UACC-257 melanoma = tested on: UACC-257 melanoma
# OVCAR-4 ovarian = tested on: OVCAR-4 ovarian
# SF-539 CNS = tested on: SF-539 CNS
# HOP-62 NSCLC = tested on: HOP-62 NSCLC
# SF-268 CNS = tested on: SF-268 CNS
# OVCAR-8 ovarian = tested on: OVCAR-8 ovarian
# NCI-H226 lung = tested on: NCI-H226 lung
# KM12 colon = tested on: KM12 colon
# RPMI-8226 leukemia = tested on: RPMI-8226 leukemia
# MDA-MB-435 = tested on: MDA-MB-435
# NCI/ADR-RES ovarian = tested on: NCI/ADR-RES ovarian
# RXF 393 renal = tested on: RXF 393 renal
# BT-549 breast = tested on: BT-549 breast
# COLO 205 colon = tested on: COLO 205 colon
# HCT-116 colon = tested on: HCT-116 colon
# OVCAR-5 ovarian = tested on: OVCAR-5 ovarian
# CCRF-CEM leukemia = tested on: CCRF-CEM leukemia
# K-562 leukemia = tested on: K-562 leukemia
# NCI-H460 lung = tested on: NCI-H460 lung
# HCC-2998 colon = tested on: HCC-2998 colon
# DU-145 prostate = tested on: DU-145 prostate
# HL-60(TB) leukemia = tested on: HL-60(TB) leukemia
# U251 CNS = tested on: U251 CNS
# PC-3 prostate = tested on: PC-3 prostate
# 786-0 renal = tested on: 786-0 renal
# HOP-92 NSCLC = tested on: HOP-92 NSCLC
# CAKI-1 renal = tested on: CAKI-1 renal
# ACHN renal = tested on: ACHN renal
# OVCAR-3 ovarian = tested on: OVCAR-3 ovarian
# A549 NSCLC = tested on: A549 NSCLC
# MCF7 breast = tested on: MCF7 breast
# SF-295 CNS = tested on: SF-295 CNS
# TK-10 renal = tested on: TK-10 renal
# SW-620 colon = tested on: SW-620 colon
# SR leukemia = tested on: SR leukemia
# IGROV1 ovarian = tested on: IGROV1 ovarian
# EKVX NSCLC = tested on: EKVX NSCLC
# NCI-H522 lung = tested on: NCI-H522 lung
# SK-MEL-2 melanoma = tested on: SK-MEL-2 melanoma
# HS 578T breast = tested on: HS 578T breast
# MDA-N = tested on: MDA-N
# HT29 colon = tested on: HT29 colon
# MDA-MB-231 breast = tested on: MDA-MB-231 breast
# SNB-19 CNS = tested on: SNB-19 CNS
# M14 melanoma = tested on: M14 melanoma
# SK-OV-3 ovarian = tested on: SK-OV-3 ovarian
structure (smiles),measurement,setting,value
CC(C)(CO)CNc1nc(N)nc(Cl)c1C=O,TGI,HCT-15 colon,45 µM
same,TGI,T-47D breast,> 100 µM
same,TGI,UO-31 renal,> 100 µM
same,TGI,UACC-62 melanoma,32.6 µM
same,TGI,SN12C renal,55.3 µM
same,TGI,A498 renal,> 100 µM
same,TGI,MALME-3M melanoma,> 100 µM
same,TGI,MOLT-4 leukemia,59 µM
same,TGI,NCI-H23 lung,> 100 µM
same,TGI,SK-MEL-28 melanoma,83.8 µM
same,TGI,LOX IMVI melanoma,33.8 µM
same,TGI,SNB-75 CNS,> 100 µM
same,TGI,SK-MEL-5 melanoma,> 100 µM
same,TGI,UACC-257 melanoma,> 100 µM
same,TGI,OVCAR-4 ovarian,> 100 µM
same,TGI,SF-539 CNS,> 100 µM
same,TGI,HOP-62 NSCLC,46.1 µM
same,TGI,SF-268 CNS,42.2 µM
same,TGI,OVCAR-8 ovarian,68.1 µM
same,TGI,NCI-H226 lung,> 100 µM
same,TGI,KM12 colon,> 100 µM
same,TGI,RPMI-8226 leukemia,> 100 µM
same,TGI,MDA-MB-435,66.5 µM
same,TGI,NCI/ADR-RES ovarian,> 100 µM
same,TGI,RXF 393 renal,44.9 µM
same,TGI,BT-549 breast,> 100 µM
same,TGI,COLO 205 colon,72.2 µM
same,TGI,HCT-116 colon,40.1 µM
same,TGI,OVCAR-5 ovarian,> 100 µM
same,TGI,CCRF-CEM leukemia,83.9 µM
same,TGI,K-562 leukemia,> 100 µM
same,TGI,NCI-H460 lung,> 100 µM
same,TGI,HCC-2998 colon,21.3 µM
same,TGI,DU-145 prostate,> 100 µM
same,TGI,HL-60(TB) leukemia,17.7 µM
same,TGI,U251 CNS,> 100 µM
same,TGI,PC-3 prostate,41.3 µM
same,TGI,786-0 renal,> 100 µM
same,TGI,HOP-92 NSCLC,77.3 µM
same,TGI,CAKI-1 renal,52.6 µM
same,TGI,ACHN renal,> 100 µM
same,TGI,OVCAR-3 ovarian,62.8 µM
same,TGI,A549 NSCLC,> 100 µM
same,TGI,MCF7 breast,> 100 µM
same,TGI,SF-295 CNS,> 100 µM
same,TGI,TK-10 renal,> 100 µM
same,TGI,SW-620 colon,> 100 µM
same,TGI,SR leukemia,66.6 µM
same,TGI,IGROV1 ovarian,46.4 µM
same,TGI,EKVX NSCLC,> 100 µM
same,TGI,NCI-H522 lung,23.5 µM
same,TGI,SK-MEL-2 melanoma,39.2 µM
same,TGI,HS 578T breast,70.7 µM
same,TGI,MDA-N,72.2 µM
same,TGI,HT29 colon,> 100 µM
same,TGI,MDA-MB-231 breast,> 100 µM
O=C(N/N=C\c1ccc([N+](=O)[O-])cc1)Nc1ccc2ccccc2c1,TGI,HCT-15 colon,> 100 µM
same,TGI,T-47D breast,> 100 µM
same,TGI,UO-31 renal,> 100 µM
same,TGI,UACC-62 melanoma,> 100 µM
same,TGI,SN12C renal,> 100 µM
same,TGI,A498 renal,56.8 µM
same,TGI,MALME-3M melanoma,51.7 µM
same,TGI,MOLT-4 leukemia,> 100 µM
same,TGI,NCI-H23 lung,> 100 µM
same,TGI,SK-MEL-28 melanoma,> 100 µM
same,TGI,LOX IMVI melanoma,> 100 µM
same,TGI,SNB-75 CNS,68.1 µM
same,TGI,SK-MEL-5 melanoma,> 100 µM
same,TGI,UACC-257 melanoma,> 100 µM
same,TGI,SNB-19 CNS,> 100 µM
same,TGI,OVCAR-4 ovarian,46.2 µM
same,TGI,SF-539 CNS,47.6 µM
same,TGI,HOP-62 NSCLC,51.2 µM
same,TGI,SF-268 CNS,> 100 µM
same,TGI,M14 melanoma,> 100 µM
same,TGI,OVCAR-8 ovarian,> 100 µM
same,TGI,NCI-H226 lung,> 100 µM
same,TGI,KM12 colon,67.3 µM
same,TGI,RPMI-8226 leukemia,> 100 µM
same,TGI,MDA-MB-435,> 100 µM
same,TGI,NCI/ADR-RES ovarian,> 100 µM
same,TGI,RXF 393 renal,> 100 µM
same,TGI,BT-549 breast,> 100 µM
same,TGI,COLO 205 colon,71.3 µM
same,TGI,HCT-116 colon,63.3 µM
same,TGI,OVCAR-5 ovarian,> 100 µM
same,TGI,CCRF-CEM leukemia,> 100 µM
same,TGI,K-562 leukemia,> 100 µM
same,TGI,SK-OV-3 ovarian,89.1 µM
same,TGI,NCI-H460 lung,36.2 µM
same,TGI,HCC-2998 colon,62.9 µM
same,TGI,DU-145 prostate,> 100 µM
same,TGI,U251 CNS,45.8 µM
same,TGI,PC-3 prostate,> 100 µM
same,TGI,786-0 renal,32.7 µM
same,TGI,HOP-92 NSCLC,54.4 µM
same,TGI,CAKI-1 renal,> 100 µM
same,TGI,ACHN renal,> 100 µM
same,TGI,OVCAR-3 ovarian,> 100 µM
same,TGI,A549 NSCLC,> 100 µM
same,TGI,MCF7 breast,> 100 µM
same,TGI,SF-295 CNS,> 100 µM
same,TGI,TK-10 renal,91.3 µM
same,TGI,SW-620 colon,53.6 µM
same,TGI,SR leukemia,> 100 µM
same,TGI,IGROV1 ovarian,> 100 µM
same,TGI,EKVX NSCLC,> 100 µM
same,TGI,NCI-H522 lung,68.4 µM
same,TGI,SK-MEL-2 melanoma,> 100 µM
same,TGI,HS 578T breast,70.6 µM
same,TGI,MDA-N,> 100 µM
same,TGI,HT29 colon,72.2 µM
same,TGI,MDA-MB-231 breast,63.8 µM
